The record followed here is US6979545B2, “Method for determining chemical reactivity” (Pharmacia & Upjohn Company, priority 2000, dated 2005).

Like-named read-outs stand apart in the source and are kept apart here.

Data set [1] in a line: fluorescein-5-maleimide (FM)/GSH competition fluorescence test. The settings on record: for level of fluorescence, visual observation of the cuvette: compared to a standard without the compound for screening; for electrophilic properties (conclusion): from FM/GSH fluorescence. It is filed as physicochemical. The protocol: A small aliquot of fluroescein-5-maleimide (FM) in dimethyl sulfoxide (DMSO) is added to a fluorometric cuvette containing 2 ml of phosphate buffered saline at a pH of 7.40. A test compound for screening in DMSO is added to the cuvette, as is a small aliquot of GSH solution. The mixture is exposed to light at 490 nm and emission is observed through a 530 nm bandpass filter. The color of the resulting mixture is observed and the amount of fluorescence is measured.

Data set [2] in a line: GSH reactivity screen (mercury orange fluorescence, 96-well). It is filed as physicochemical. Conditions: for potential reactivity using the GSH reactivity screen: residual GSH by HgO fluorescence, electrophile criterion e.g. <20% GSH remaining. The procedure: The test compounds as listed in Table 2 to be screened are dissolved in dimethyl sulfoxide (DMSO) to a final concentration of 10 mM, and 2 μL is transferred to the wells of a polypropylene 96-well microtiter plate. […] Mercury orange (HgO) stock solution (470 μM) is prepared in acetone and stored at 4° C. […] A 48 μL aliquot of the GSH working solution is pipetted into the 96-well tray containing the test compounds to yield a final concentration of 200 μM GSH. The reaction of the test compound with the GSH is allowed to proceed for 1 h at room temperature after which time an aliquot of HgO is added to each reaction well to yield a final concentration of 50 μM GSH/HgO. […] Assay linearity is investigated by preparing a GSH standard curve in the concentration range 0 to 50 μM (final concentration). Routine sample analysis is achieved using a Biomek 2000 biorobotic system configured with six 96-well plates and 2 reagent reservoirs.
Compounds are then identified as elelctrophiles based upon a predetermined criteria of GSH consumption (e.g., <20% GSH remaining).

The mark [3] stands for this setting: phosphate buffered saline pH 7.40, excitation 490 nm, emission 530 nm.
Where [4] appears, read: test compound with 200 μM GSH, 1 h at room temperature, no metabolic activation, no glutathione transferase.
[5] abbreviates: test compound with 200 μM GSH, 1 h at room temperature.

As to `O=C1C=CC(=O)N1c1cccc(C(F)(F)F)c1`, in data set [1], the “level of fluorescence, visual observation of the cuvette” value was “does not appreciably change” and the “electrophilic properties (conclusion)” value was “not having electrophilic properties”. Besides, the “reactivity of this compound toward GSH as compared to the FM standard” value in data set [1] (setting [3]) is 2.95 times less.

`CC(=O)NC1=C(Cl)C(=O)c2ccccc2C1=O`: in data set [1], the “level of fluorescence, visual observation of the cuvette” value was “appreciably reduced” and the “electrophilic properties (conclusion)” value is reported as “having electrophilic properties”. Further, in data set [1] (setting [3]), the “reactivity of this compound toward GSH as compared to the FM standard (in words)” value was “slightly greater”.

With `O=[N+]([O-])c1ccc(Cl)cc1` [1-Chloro-4-nitrobenzene], in data set [2], the “result in the GSH screen (in words)” value is on record as “non-reactive”.

As for `O=[N+]([O-])c1ccc(Cl)c([N+](=O)[O-])c1` [1-chloro-2,4-dinitrobenzene], the “result in the GSH screen (in words)” value in data set [2] (setting [4]) was “non-reactive”.

Regarding `O=[N+]([O-])c1csc(Br)n1` [2-Bromo-4-nitrothiazole], the “potential reactivity using the GSH reactivity screen” value (shortened to “potential reactivity”) in data set [2] (setting [5]) is listed as “R”. Moreover, the “result in the GSH screen (in words)” value in data set [2] (setting [4]) is given as “reactive”.

`N#Cc1ccc(Cl)cc1` [4-Chlorobenzonitrile]: in data set [2], the “result in the GSH screen (in words)” value is recorded as “non-reactive”.

Consider `Nc1ccc(Cl)c([N+](=O)[O-])c1` [4-chloro-3-nitroaniline], for which the “result in the GSH screen (in words)” value in data set [2] (setting [4]) is “non-reactive”.

As to `COc1ccc(Cl)c([N+](=O)[O-])c1` [4-chloro-3-nitroanisole], the “result in the GSH screen (in words)” value in data set [2] (setting [4]) is listed as “non-reactive”.

On to `N#Cc1ccc(Cl)c([N+](=O)[O-])c1` [4-chloro-3-nitrobenzonitrile], for which the “result in the GSH screen (in words)” value in data set [2] (setting [4]) is listed as “non-reactive”.

As to `O=[N+]([O-])c1cc(O)ccc1Cl` [4-chloro-3-nitrophenol], the “result in the GSH screen (in words)” value in data set [2] (setting [4]) is on record as “non-reactive”.

For the compound `c1ccccc1` [Benzene], the “result in the GSH screen (in words)” value in data set [2] (setting [4]) is listed as “non-reactive”.

As for `COc1ccc(O)c(C(C)(C)C)c1` [Butylated hydroxyanisole], the “result in the GSH screen (in words)” value in data set [2] (setting [4]) is “non-reactive”.

For `Cc1cc(C(C)(C)C)c(O)c(C(C)(C)C)c1` [Butylated hydroxytoluene], the “result in the GSH screen (in words)” value in data set [2] (setting [4]) is “non-reactive”.

Consider `ClC(Cl)Cl` [Chloroform], for which, in data set [2], the “result in the GSH screen (in words)” value is “non-reactive”.

Take `O=C(O)Cc1ccccc1Nc1c(Cl)cccc1Cl` [Diclofenac]: the “result in the GSH screen (in words)” value in data set [2] (setting [4]) was “non-reactive”.

`O=C(CCCN1CCC(O)(c2ccc(Cl)cc2)CC1)c1ccc(F)cc1` [Haloperidol]: the “result in the GSH screen (in words)” value in data set [2] (setting [4]) was “non-reactive”.

For `O=C1C=C(c2ccccc2)C(=O)N1` [Phenylmaleimide], in data set [2] (setting [5]), the “potential reactivity” value is “R”. Moreover, the “result in the GSH screen (in words)” value in data set [2] (setting [4]) is on record as “reactive”.

Regarding `O=C1NC(=O)C(c2ccccc2)(c2ccccc2)N1` [Phenytoin], the “result in the GSH screen (in words)” value in data set [2] (setting [4]) is listed as “non-reactive”.

As for `CC/C(=C(\c1ccccc1)c1ccc(OCCN(C)C)cc1)c1ccccc1` [Tamoxifen], the “result in the GSH screen (in words)” value in data set [2] (setting [4]) is given as “non-reactive”.

As to `Cc1ccccc1` [Toluene], the “result in the GSH screen (in words)” value in data set [2] (setting [4]) is recorded as “non-reactive”.

Regarding `CC(=O)Nc1ccc(O)cc1` [acetaminophen], the “result in the GSH screen (in words)” value in data set [2] (setting [4]) was “non-reactive”.

With `C/C=C/C=O` [trans Crotonaldehyde], the “potential reactivity” value in data set [2] (setting [5]) is given as “R”. Besides, in data set [2] (setting [4]), the “result in the GSH screen (in words)” value is “reactive”.
